Measurements published in patent US20100022483A1, “Substituted Tetracycline Compounds” (Paratek Pharmaceuticals, Inc., priority 2008, published 2010).
In brackets after ≈: the same amount, converted by molar mass. Read-outs that look alike come from different tables or passages of the source.

Assays:
gram positive bacteria = experiment: In vitro anti-bacterial activity assay (broth dilution MIC), gram positive bacteria; assay type: cell-based, S. aureus; conditions: 18 h
Source text: (§1) Bacterial infections may be caused by a wide variety of gram positive and gram negative bacteria. Some of the compounds of the invention are useful as antibiotics against organisms which are resistant and/or sensitive to other tetracycline compounds. The antibiotic activity of the tetracycline compounds of the invention may by using the in vitro standard broth dilution method described in Waitz, J. A., CLSI, Document M7-A2, vol. 10, no. 8, pp. 13-20, 2nd edition, Villanova, Pa. (1990).
(§2) The following assay was used to determine the efficacy of the tetracycline compounds against gram positive and gram negative bacteria. 2 mg of each compound was dissolved in 100 μl of DMSO. […] The tetracycline compound solutions were diluted to 50 μL volumes, with a test compound concentration of 0.098 μg/ml. Optical density (OD) determinations were made from fresh log-phase broth cultures of the test strains. Dilutions were made to achieve a final cell density of […] CFU/ml. At OD=1, cell densities for different genera were approximately:
(§3) 50 μl of the cell suspensions were added to each well of microtiter plates. The final cell density was approximately 5×10^5 CFU/ml. These plates were incubated at 35° C. in an ambient air incubator for approximately 18 hours. The plates were read with a microplate reader and were visually inspected when necessary. The MIC was defined as the lowest concentration of the tetracycline compound that inhibits growth. Table 3 includes MIC data for several substituted tetracycline compounds.

gram negative bacteria = experiment: In vitro anti-bacterial activity assay (broth dilution MIC), gram negative bacteria; assay type: cell-based, E. coli
Source text: as §1, §2, §3

[1] = Mammalian cytotoxicity assay (resazurin), COS-1 cells; assay type: cell-based; conditions: African green monkey, read-out: Cytotox. COS-1
Procedure: (§4) COS-1 and CHO-K1 cell suspensions were prepared, seeded into 96-well tissue culture treated black-walled microtiter plates (density determined by cell line), and incubated overnight at 37° C., in 5% CO2 and approximately 95% humidity. The following day, serial dilutions of compound were prepared under sterile conditions and transferred to cell plates. Cell/Compound plates were incubated under the above conditions for 24 hours. Following the incubation period, media/compound was aspirated and 50 μl of resazurin (0.042 mg/ml in PBS w/Ca and Mg) is added. The plates were then incubated under the above conditions for 2 hours and then placed in the dark at room temperature for an additional 30 minutes. Fluorescence measurements were taken (excitation 535 nm, emission 590 nm). The IC50 (concentration of compound causing 50% growth inhibition) was then calculated. Table 3 includes IC50 data for several substituted tetracycline compounds.

in vitro = assay type: cell-based; conditions: Chinese hamster, Cytotox. CHO-K1
Procedure: as §4

3T3 fibroblast cells = experiment: In vitro phototoxicity assay (neutral red; UV light-treated vs dark control plates); assay type: cell-based; conditions: for Photo Toxicity UV Tox50: UV light 50 minutes; for Photo Toxicity Dark Tox50: dark control plate
Procedure: 3T3 fibroblast cells were harvested and plated at a concentration of 1×10^5 cells/mL and the plates were incubated overnight at 37° C., in 5% CO2 and approximately 95% humidity. On the following day the medium was removed from the plates and replaced with Hanks' Balanced Salt Solution (HBSS). Compound dilutions were made in HBSS and added to the plates. For each compound tested, a duplicate plate was prepared that was not exposed to light as a control for compound toxicity. Plates were then incubated in a dark drawer (for controls), or under UV light (meter reading of 1.6-1.8 mW/cm^2) for 50 minutes. Cells were then washed with HBSS, fresh medium was added, and plates were incubated overnight as described above. The following day neutral red was added as an indicator of cell viability. The plates were then incubated for an additional 3 hours. Cells were then washed with HBSS and blotted on absorbent paper to remove excess liquid. A solution of 50% EtOH, 10% glacial acetic acid was added and after 20 minutes incubation the plate's absorbance at 535 nm was read using a Wallac Victor 5 spectrophotometer. The phototoxicity reflected the difference between the light-treated and control cultures. Table 3 includes phototoxicity (μM) data for several substituted tetracycline compounds.

[2] = Staphylococcus aureus, S. aureus MRSA5, read-out: Median MIC's G+ S. aureus MRSA5
[3] = Staphylococcus aureus, S. aureus RN450, read-out: Median MIC's G+ S. aureus RN450
[4] = Streptococcus pneumoniae, S. pneumoniae 157E-Strep, read-out: Median MIC's G+ S. pneumoniae 157E-Strep
[5] = Escherichia coli, 18 h, E. coli D1 209, read-out: Median MIC's G− E. coli D1 209
[6] = Escherichia coli, 18 h, E. coli MG 1655, read-out: Median MIC's G− E. coli MG 1655
[7] = Escherichia coli, ATCC25922, 18 h, E. coli ATCC 25922, read-out: Median MIC's G− E. coli ATCC 25922
[8] = Pseudomonas aeruginosa, 18 h, P. aeruginosa K201 PAO6609, read-out: Median MIC's G− P. aeruginosa K201 PAO6609

`COCCN(C)CC(=O)c1ccc(O)c2c1C[C@H]1C[C@H]3[C@H](N(C)C)C(O)=C(C(N)=O)C(=O)[C@@]3(O)C(O)=C1C2=O` [BO] gave an MIC (gram positive bacteria; [2]) of 4 mg/L (≈ 7.36 µM), an MIC (gram positive bacteria; [3]) of 0.5 mg/L (≈ 0.92 µM) and an MIC (gram positive bacteria; [4]) of 0.25 mg/L (≈ 0.46 µM). It also gave an MIC (gram negative bacteria; [5]) of 64 mg/L (≈ 118 µM), an MIC (gram negative bacteria; [6]) of 2 mg/L (≈ 3.68 µM) and an MIC (gram negative bacteria; [7]) of 2 mg/L (≈ 3.68 µM). The MIC (gram negative bacteria; [8]) was 64 mg/L (≈ 118 µM), the IC50 at 24 h [1] was greater than 154 µM and the IC50 at 24 h (in vitro) was greater than 154 µM. For the same compound, the “Photo Toxicity UV Tox50” value (3T3 fibroblast cells) was greater than 154.09 µM and the “Photo Toxicity Dark Tox50” value (3T3 fibroblast cells) was greater than 154.09 µM.

Work on `CN(C)[C@@H]1C(O)=C(C(N)=O)C(=O)[C@@]2(O)C(O)=C3C(=O)c4c(O)ccc(C(=O)CNCC(C)(C)C)c4C[C@H]3C[C@@H]12` [BP] yielded an MIC (gram positive bacteria; [2]) of 16 mg/L (≈ 29.5 µM), an MIC (gram positive bacteria; [3]) of 2 mg/L (≈ 3.69 µM) and an MIC (gram positive bacteria; [4]) of 2 mg/L (≈ 3.69 µM). It also gave an MIC (gram negative bacteria; [5]) of 64 mg/L (≈ 118 µM), an MIC (gram negative bacteria; [6]) of 32 mg/L (≈ 59.1 µM) and an MIC (gram negative bacteria; [7]) of 32 mg/L (≈ 59.1 µM). For the same compound, the MIC (gram negative bacteria; [8]) was 64 mg/L (≈ 118 µM), the IC50 at 24 h [1] was greater than 42.9 µM and the IC50 at 24 h (in vitro) was greater than 42.9 µM. The “Photo Toxicity UV Tox50” value (3T3 fibroblast cells) was greater than 138.32 µM and the “Photo Toxicity Dark Tox50” value (3T3 fibroblast cells) was greater than 138.32 µM.

Compound `COCCNCc1ccoc1-c1ccc(O)c2c1C[C@H]1C[C@H]3[C@H](N(C)C)C(O)=C(C(N)=O)C(=O)[C@@]3(O)C(O)=C1C2=O` [BQ] has an MIC (gram positive bacteria; [2]) of 4 mg/L (≈ 7.05 µM), an MIC (gram positive bacteria; [3]) of 0.06 mg/L (≈ 0.106 µM) and an MIC (gram positive bacteria; [4]) of 0.06 mg/L (≈ 0.106 µM). It also gave an MIC (gram negative bacteria; [5]) of 64 mg/L (≈ 113 µM), an MIC (gram negative bacteria; [6]) of 1 mg/L (≈ 1.76 µM) and an MIC (gram negative bacteria; [7]) of 1 mg/L (≈ 1.76 µM). The MIC (gram negative bacteria; [8]) was 64 mg/L (≈ 113 µM), the IC50 at 24 h [1] was greater than 141 µM and the IC50 at 24 h (in vitro) was greater than 141 µM. The “Photo Toxicity UV Tox50” value (3T3 fibroblast cells) was greater than 140.51 µM and the “Photo Toxicity Dark Tox50” value (3T3 fibroblast cells) was greater than 140.51 µM.

With `CCOC(=O)N1CCN(CC(=O)c2ccc(O)c3c2C[C@H]2C[C@H]4[C@H](N(C)C)C(O)=C(C(N)=O)C(=O)[C@@]4(O)C(O)=C2C3=O)CC1` [BR] the MIC (gram positive bacteria; [2]) was 0.5 mg/L (≈ 0.816 µM), the MIC (gram positive bacteria; [3]) was 0.06 mg/L (≈ 0.0979 µM) and the MIC (gram positive bacteria; [4]) was 0.06 mg/L (≈ 0.0979 µM). For the same compound, the MIC (gram negative bacteria; [5]) was 64 mg/L (≈ 104 µM), the MIC (gram negative bacteria; [6]) was 8 mg/L (≈ 13.1 µM) and the MIC (gram negative bacteria; [7]) was 8 mg/L (≈ 13.1 µM). The MIC (gram negative bacteria; [8]) was 64 mg/L (≈ 104 µM), the IC50 at 24 h [1] was greater than 40.7 µM and the IC50 at 24 h (in vitro) was greater than 40.7 µM. For the same compound, the “Photo Toxicity UV Tox50” value (3T3 fibroblast cells) was greater than 131.28 µM and the “Photo Toxicity Dark Tox50” value (3T3 fibroblast cells) was greater than 131.28 µM.

Compound `CC(=O)N1CCN(CC(=O)c2ccc(O)c3c2C[C@H]2C[C@H]4[C@H](N(C)C)C(O)=C(C(N)=O)C(=O)[C@@]4(O)C(O)=C2C3=O)CC1` [BS] has an MIC (gram positive bacteria; [2]) of 8 mg/L (≈ 13.7 µM), an MIC (gram positive bacteria; [3]) of 1 mg/L (≈ 1.72 µM) and an MIC (gram positive bacteria; [4]) of 1 mg/L (≈ 1.72 µM). The MIC (gram negative bacteria; [5]) was 64 mg/L (≈ 110 µM), the MIC (gram negative bacteria; [6]) was 32 mg/L (≈ 54.9 µM) and the MIC (gram negative bacteria; [7]) was 64 mg/L (≈ 110 µM). For the same compound, the MIC (gram negative bacteria; [8]) was 64 mg/L (≈ 110 µM), the IC50 at 24 h [1] was greater than 145 µM and the IC50 at 24 h (in vitro) was greater than 145 µM. The “Photo Toxicity UV Tox50” value (3T3 fibroblast cells) was greater than 144.92 µM and the “Photo Toxicity Dark Tox50” value (3T3 fibroblast cells) was greater than 144.92 µM.

For `CN(C)[C@@H]1C(O)=C(C(N)=O)C(=O)[C@@]2(O)C(O)=C3C(=O)c4c(O)ccc(C(=O)CNCC(F)(F)F)c4C[C@H]3C[C@@H]12` [BT], the MIC (gram positive bacteria; [2]) was 2 mg/L (≈ 3.61 µM), the MIC (gram positive bacteria; [3]) was 0.06 mg/L (≈ 0.108 µM) and the MIC (gram positive bacteria; [4]) was 0.06 mg/L (≈ 0.108 µM). It also gave an MIC (gram negative bacteria; [5]) of 64 mg/L (≈ 116 µM), an MIC (gram negative bacteria; [6]) of 8 mg/L (≈ 14.5 µM) and an MIC (gram negative bacteria; [7]) of 2 mg/L (≈ 3.61 µM). For the same compound, the MIC (gram negative bacteria; [8]) was 64 mg/L (≈ 116 µM), the IC50 at 24 h [1] was greater than 47 µM and the IC50 at 24 h (in vitro) was greater than 47 µM. The “Photo Toxicity UV Tox50” value (3T3 fibroblast cells) was greater than 151.65 µM and the “Photo Toxicity Dark Tox50” value (3T3 fibroblast cells) was greater than 151.65 µM.

`CN(C)[C@@H]1C(O)=C(C(N)=O)C(=O)[C@@]2(O)C(O)=C3C(=O)c4c(O)ccc(C(=O)CN5CCN(C6CCCCC6)CC5)c4C[C@H]3C[C@@H]12` [BU] showed an MIC (gram positive bacteria; [2]) of 1 mg/L (≈ 1.61 µM), an MIC (gram positive bacteria; [3]) of 0.13 mg/L (≈ 0.209 µM) and an MIC (gram positive bacteria; [4]) of 0.06 mg/L (≈ 0.0964 µM). The MIC (gram negative bacteria; [5]) was 2 mg/L (≈ 3.21 µM), the MIC (gram negative bacteria; [6]) was 0.5 mg/L (≈ 0.803 µM) and the MIC (gram negative bacteria; [7]) was 1 mg/L (≈ 1.61 µM). It also gave an MIC (gram negative bacteria; [8]) of 64 mg/L (≈ 103 µM), an IC50 at 24 h [1] greater than 123 µM and an IC50 at 24 h (in vitro) greater than 123 µM. The “Photo Toxicity UV Tox50” value (3T3 fibroblast cells) was greater than 122.93 µM and the “Photo Toxicity Dark Tox50” value (3T3 fibroblast cells) was greater than 122.93 µM.
